According to US8778643B2, “Methods for increasing lipid levels and producing triacylglycerols in algae” (priority 2012, dated 2014):
Values joined by “and” are separate entries in the source; they are usually repeats but may differ in a detail not shown here. Equal entries are not always repeated. Where two headings read alike, the source gives them in different places.

What was measured:
[1] = system: Phaeodactylum tricornutum; experiment: Microplate assay: growth (absorbance 680 nm) and intracellular lipids (Nile Red fluorescence); format: cell-based; settings: for effect on lipid production / lipid levels: microplate assay, multiple concentrations; for increase in lipid levels: higher concentrations
[2] = system: Nannochloris sp.; experiment: as above; format: cell-based; settings: for effect on lipid production / lipid levels: microplate assay, multiple concentrations; for Nile Red Fluorescence % Increase: Nannochloris sp., compounds tested at 20 μM, initial screening, p<0.05
Method: (§1) Stock cultures were aerated by stirring with bubbling air (homemade manifold with Petco air pump, 2-4% CO2) or by orbital shaking (Thermo Scientific MAXQ 2000) at a constant speed of 150 rpm at 22±3° C. with a 16:8 hour light/dark cycle. Stocks were kept at stationary phase for use. Algae were prepared as dictated by culture center.
(§2) Compounds were selected based on reported biological activity in non-microalgae organisms. To ensure that compounds retained their quality, they were stored under advised conditions after purchasing from the manufacturer. Solutions of all assay compounds were prepared as 10 mM stock solutions by dissolving in DMSO in 2-dram amber vials and then stored in darkness −20° C. 96-well PCR plates were used to create a stock plate layout that was then transferred to the algae microplates. A plate map was used to distribute each compound to a well based on molecule name, collection number, and CAS number. For 20 μM and 200 nM assay plates, 10 mM compound stock in DMSO was diluted into plate maps of 5 mM and 50 μM assay stocks, respectively.
(§3) All materials for assay experiments were autoclaved before each use to maintain axenic algae cultures. Algae species were checked for homogeneity using a TS-100 light microscope (Nikon, Japan). […] Diluted stock solutions were made immediately prior to use for consistency and optimal plate growth. Cell density was measured on a Thermo Scientific Genesys 10S Vis Spectrophotometer (ThermoFisher, San Jose), using a 1 mL cuvette at 680 nm.
(§4) Plates were originally run in triplicate, before replicates were increased to quadruplicate, along with a separate control plate to compare growth. Due to extensive evaporation in exterior wells over time, our unique algae plate layout was designed to use the 60 interior wells out of 96 wells for the experiment. The 36 outer wells were filled with Millipore water and media to prevent evaporation and edge effects in the inner algae wells, as well as serve as blanks. The 60 wells with algae contained a total volume of 251 μL (100 μL of media+DMSO compound stock +150 μL dilute algae stock). For 20 μM and 200 nM assay plates, 10 mM compound stock in DMSO is diluted into plate maps of 5 mM and 50 μM assay stocks, respectively. […] Plates were parafilmed during growth to limit the amount of evaporation that can occur. Plates were numbered, and numerically ordered to ensure they got the same shaker space.
(§5) The shakers are kept at a constant shaking of 150 rpm. Ambient temperature is 22±3° C.

[3] = system: Nannochloropsis salina; settings: for % Inc: increase of lipid production; for effect on lipid production / lipid levels: microplate assay, multiple concentrations
Method: as §1, §2, §3, §4, §5

[4] = system: Nannochloropsis oculata; settings: for effect on lipid production / lipid levels: microplate assay, multiple concentrations; for increase in lipid levels (Nile Red): lower concentrations, >0.040 nM
[5] = system: Nannochloropsis oculata; experiment: Lipid composition of batch culture extracts (fatty acid saturation / PUFA by 1H NMR, MALDI-TOF, GC/MS); format: cell-based; settings: for SFAs (% of total lipids) / n3 PUFAs (% of UFAs) / All other PUFAs and MUFAs (% of UFAs) / UFAs (% of total lipids): 1H NMR; for SFAs (% of total lipids): Normal 24; for n3 PUFAs (% of UFAs): Normal 37; for All other PUFAs and MUFAs (% of UFAs): Normal 63; for UFAs (% of total lipids): Normal 76
[6] = system: microalgae; experiment: Microplate assay (growth, Nile Red lipids), algae strain not stated; settings: added in the initial phase, <1 μM, greater than 1 μM
[7] = system: Phaeodactylum tricornutum; experiment: 500 mL batch culture: growth, dry weight and lipid extract (gravimetric); format: cell-based; settings: P. tricornutum, 500 mL culture, 76 pM
Method: (§6) Batch cultures were grown in 500 mL Pyrex media bottles with stirring and air bubbling (homemade manifold with Petco air pump, 2-4% CO2). Incoming air was sterile filtered by Polyvent 4 disposable filters (Whatman, Kent, UK). […] To minimize bacterial contamination, all equipment and materials were autoclaved and media was added to flask in a Purifier Vertical Clean bench (Labconco, Kansas City, Mo.). […] The amount of DMSO is standardized for all experiments to 0.4%.
(§7) For all compound cultures, the 2 mL DMSO stock solution was added to media (without algae) first and mixed well. Control cultures were grown without DMSO. DMSO controls consisted of 0.04-1.0% DMSO. After the addition of algae and media, the container was plugged with a bug stopper vented closure cap and mixed thoroughly. Absorbance is measured immediately for Day 0 analysis. Afterward, absorbance was measured every 1-2 days with a cuvette (1 mL volume) on the Thermo Scientific Genesys 10S V is Spectrophotometer (ThermoFisher, San Jose) at 680 nm.
(§8) Batch cultures were also repeated in triplicate and compared to a control culture grown at the same time. Algae were harvested and lipids were extracted for gravimetric analysis.
(§9) The nonpolar algal extracts were harvested from 500 mL cultures when indicated on growth curves, a minimum of 3 days into stationary phase.
(§10) Cell density was monitored by measuring absorbance at 680 nm every 1-2 days.
(§11) 500-mL cultures were harvested 6 days into stationary phase based on absorbance values. Cells were concentrated by centrifugation and lyophilization to remove water. Nonpolar lipids were extracted by sonication and solvent (chloroform-methanol and PBS buffer). […] Changes in lipid levels for batch cultures were determined by crude lipid extract mass.

[8] = system: Nannochloropsis oculata; experiment: as above; format: cell-based
Method: as §6, §7, §8, §9, §10, §11

[9] = system: Nannochloris sp.; experiment: as above; format: cell-based; settings: for Lipid productivity / Change in Lipids / Specific Growth Rate: Nannochloris sp., 500 mL culture, 4 nM; for Change in Lipids: gravimetric, relative to averaged control without DMSO; for Specific Growth Rate: mid-exponential growth phase
Method: as §6, §7, §8, §9, §10, §11

[10] = 200 nM, initial microplate screen, relative to control
[11] = 20 μM, initial microplate screen, relative to control
[12] = N. oculata, compounds tested at 200 nM, initial screening, p<0.05
[13] = 40 μM, initial microplate screen, relative to control

Oc1cc(O)c2c(c1)O[C@H](c1ccc(O)c(O)c1)[C@H](O)C2 [(−)-epicatechin, (−)-Epicatechin]
effect on lipid production / lipid levels [1]: lipid production increased | effect on lipid production / lipid levels [2]: lipid production increased | % Inc ([3]; N. salina, best conc. 2.4 nM): 147.90% | effect on lipid production / lipid levels [3]: lipid production increased | effect on lipid production / lipid levels [4]: lipid production increased

Oc1cc(O)c2c(c1)O[C@H](c1cc(O)c(O)c(O)c1)[C@H](O)C2 [(−)-epigallocatechin, (2R,3R)-2-(3,4,5-trihydroxyphenyl)-3,4-dihydro-2H-chromene-3,5,7-triol]
effect on lipid production / lipid levels [1]: reduction in lipids | effect on lipid production / lipid levels [2]: reduction in lipids | % Inc ([3]; N. salina, best conc. 39 nM): 216.15% | effect on lipid production / lipid levels [3]: reduction in lipids | effect on lipid production / lipid levels [4]: reduction in lipids

COc1cc(C[C@H]2C(=O)OC[C@@H]2Cc2ccc(OC)c(OC)c2)ccc1O [Arctigenin, (3R,4R)-4-[(3,4-dimethoxyphenyl)methyl]-3-[(4-hydroxy-3-methoxyphenyl)methyl]-2-tetrahydrofuranone]
% Lipid increase based on Nile red fluorescence intensity ([1]; P. tricornutum, 41.2 nM, DMSO, t=day 0): 61% | % Increase based on Nile Red Fluorescence Intensity ([1]; P. tricornutum, 41.2 nM, DMSO delivery, added t=day 0): 61% | Absorbance (percent increase) [2, 10]: −3.4% | Nile Red percent increase [2, 10]: 66.0% | Absorbance (percent increase) [2, 11]: −5.4% | Nile Red percent increase [2, 11]: 79.0% | % Lipid increase based on Nile red fluorescence intensity ([3]; N. salina, 370.4 nM, DMSO, t=day 0): 64% | % Increase based on Nile Red Fluorescence Intensity ([3]; N. salina, 13 nM, DMSO delivery, added t=day 0): 59% | % Increase based on Nile Red Fluorescence Intensity ([3]; N. salina, 370.4 nM, DMSO delivery, added t=day 0): 64% | Nile Red Fluorescence % Increase [4, 12]: 152.2%

O=C(O)O [Bicarbonate]
MUFAs (%) [5]: 13% | PUFAs (%) [5]: 87% | SFAs (%) [5]: 0% | n3 PUFAs (%) [5]: 20%

CC1CC(C)C(=O)C(C(O)CC2CC(=O)NC(=O)C2)C1 (stereo not drawn) [Cycloheximide, 3-[2-(3,5-Dimethyl-2-oxocyclohexyl)-2-hydroxyethyl]glutarimide]
% Lipid increase based on Nile red fluorescence intensity ([1]; P. tricornutum, 400 nM, added at exponential phase, t=day 7): 408% | % Increase based on Nile Red Fluorescence Intensity ([1]; P. tricornutum, 400 nM, added during exponential phase): 408% | Absorbance (percent increase) [2, 10]: −12.4% | Nile Red percent increase [2, 10]: 178.1% | SFAs (% of total lipids) ([5]; 40 nM (exponential)): 39 % of total lipids | n3 PUFAs (% of UFAs) ([5]; 40 nM (exponential)): 33 % of UFAs | All other PUFAs and MUFAs (% of UFAs) ([5]; 40 nM (exponential)): 67 % of UFAs | UFAs (% of total lipids) ([5]; 40 nM (exponential)): 61 % of total lipids | Nile Red percent increase ([4]; 4.6-41.2 nM, dose-response microplate screen): 87-96% | Nile Red Fluorescence % Increase [4, 12]: 137.9% | effect on lipid levels [6]: minimal increase in lipid levels | effect on cell growth ([6]; all four species): inhibitory effect on cell growth

OCC(O)CO [Glycerol, propane-1,2,3-triol]
SFAs (% of total lipids) ([5]; 11 mM): 39 % of total lipids | n3 PUFAs (% of UFAs) ([5]; 11 mM): 16 % of UFAs | All other PUFAs and MUFAs (% of UFAs) ([5]; 11 mM): 84 % of UFAs | UFAs (% of total lipids) ([5]; 11 mM): 61 % of total lipids | SFAs (%) ([5]; N. oculata, 1 g/L, n=1, Normal 0 ± 1): 30% | MUFAs (%) ([5]; N. oculata, 1 g/L, n=1, Normal 4 ± 7): 33% | n3 PUFAs (%) ([5]; N. oculata, 1 g/L, n=1, Normal 28 ± 4): 10% | PUFAs (%) ([5]; N. oculata, 1 g/L, n=1, Normal 96 ± 7): 38%

Cc1cc2c(C(C)C)c(O)c(O)c(C=O)c2c(O)c1-c1c(C)cc2c(C(C)C)c(O)c(O)c(C=O)c2c1O [Gossypol, 2,2′-bis-(Formyl-1,6,7-trihydroxy-5-isopropyl-3-methylnaphthalene)]
increase in lipid production ([1]; 0.0757 nM, DMSO delivery): > 250% | Nile Red percent increase ([1]; 0.0757 nM, dose-response microplate screen): 111% | % increase (lipid production) ([1]; 0.0252-165.6 nM): 5-283% | optimal effective concentration (lipid production) ([1]; DMSO delivery): 0.0757 nM | Lipid productivity [7]: 5.6 ± 1.9 mgL^−1day^−1 | Lipid content ([7]; dried lipid extract per dry biomass): 24.4 ± 2.7 % w/w | Change in Lipids ([7]; gravimetric, relative to averaged control without DMSO): 27% | Specific Growth Rate ([7]; mid-exponential growth phase): 0.21 ± 0.05 day⁻¹ | % increase (lipid production) ([3]; 0.0757-6.13 nM (H2O)): 1-27(H2O) % | % increase (lipid production) ([3]; 0.0757-55.2 nM, DMSO delivery): 8-81% | % Lipid increase based on Nile red fluorescence intensity ([3]; N. salina, 6.13 nM, DMSO, t=day 0): 103% | % Increase based on Nile Red Fluorescence Intensity ([3]; N. salina, 6.13 nM, DMSO delivery, added t=day 0): 103% | optimal effective concentration (lipid production) ([3]; lipoxygenase inhibitor microplate screen): 6 nM

O=C([O-])O.[Na+] [NaHCO3]
Absorbance at harvest [8]: 2.373 ± 0.217 | Dry weight [8]: 371 ± 117.8 | Extract Weight [8]: 93.5 ± 34.0

O=C(NCCCCCCNC(=O)ON=C1CCCCC1)ON=C1CCCCC1 [RHC80267, 1,6-bis(Cyclohexyloximinocarbonylamino)hexane]
% change in abs [1]: −6.46% | % in NR fl [1]: 45.19% | % in NR fl [3]: 71.52% and 68.33% | % change in abs [4]: 12.83% | % in NR fl [4]: 49.41%

Oc1ccc(/C=C/c2cc(O)cc(O)c2)cc1 [Resveratrol, 5-[(E)-2-(4-hydroxyphenyl)ethenyl]benzene-1,3-diol]
% Lipid increase based on Nile red fluorescence intensity ([1]; P. tricornutum, 10 nM, DMSO, t=day 0): 61% | % Increase based on Nile Red Fluorescence Intensity ([1]; P. tricornutum, 10 nM, DMSO delivery, added t=day 0): 61% | Nile Red Fluorescence % Increase [2]: 53.3% | % Inc ([3]; N. salina, best conc. 10 nM): 272.72% | Nile Red Fluorescence % Increase [4, 12]: 120.4%

Oc1ccc(-c2nc(-c3ccncc3)c(-c3ccc(F)cc3)[nH]2)cc1 [SB202190, 4-(4-Flurophenyl)-2-(4-hydroxyphenyl)-5-(4-pyridyl)-1H-imidazole]
Absorbance (percent increase) [1, 13]: +4.26% | Nile Red percent increase [1, 13]: 112.4% | increase in lipid levels ([1]; DMSO as delivery agent): 26% | Nile Red Fluorescence % Increase ([1]; P. tricornutum, compounds tested at 40 μM, initial screening, p<0.05): 115.0% | increase in lipid levels ([1]; water as delivery agent): 99% | Nile Red percent increase ([2]; 123-457 pM, dose-response microplate screen): 103-175% | Nile Red Fluorescence % Increase [2]: 54.6% and 28.8% | Lipid productivity [9]: 3.0 ± 1.7 mgL^−1day^−1 | Lipid productivity ([9]; exponential addition): 4.0 ± 1.6 mgL^−1day^−1 | Change in Lipids ([9]; exponential addition): 38% | Specific Growth Rate ([9]; exponential addition): 0.15 ± 0.08 day⁻¹ | Change in Lipids [9]: 3% | Specific Growth Rate [9]: 0.17 ± 0.02 day⁻¹ | increase in lipid levels ([9]; batch culture, added during the exponential growth phase): 38% | % Lipid increase based on Nile red fluorescence intensity ([4]; N. oculata, 400 fM, added at exponential phase, t=day 7): 95% | % Increase based on Nile Red Fluorescence Intensity ([4]; N. oculata, 400 fM, added during exponential phase): 95% | increase in lipid levels (Nile Red) ([4]; compound added at t=day 0): 45% | increase in lipid levels (Nile Red) ([4]; compound added in exponential growth phase (Day 7)): 95%

C/C(=C\CNc1ncnc2nc[nH]c12)CO [Zeatin, (E)-2-methyl-4-(7H-purin-6-ylamino)but-2-en-1-ol]
% Increase based on Nile Red Fluorescence Intensity [1]: 114% | % Lipid increase based on Nile red fluorescence intensity [1]: 114% | % Increase based on Nile Red Fluorescence Intensity [3]: 64% and 50% | % Lipid increase based on Nile red fluorescence intensity [3]: 64% | Nile Red Fluorescence % Increase [4]: 157.1%
